From patent publication US10968236B2, “TYK2 inhibitors and uses thereof” (Nimbus Lakshmi, Inc., priority 2015, dated 2021)

Tests used:
[1] = tested on: IL-12 induced pSTAT4 (Tyk2-pSTAT4); experiment: IL-12 Induced pSTAT4 in human PBMC; format: cell-based; settings: IL-12 1.7 ng/mL
Method: IL-12 Induced pSTAT4 in human PBMC. Human PBMC are isolated from buffy coat and are stored frozen for assays as needed. Cells for assay are thawed and resuspended in complete media containing serum, then cells are diluted to 1.67 E6 cells/ml so that 120 μl per well is 200,000 cells. 15 μl of compound or DMSO is added to the well at the desired concentrations and incubated at 1 hr at 37 C. 15 μl of stimulus (final concentration of 1.7 ng/mL IL-12) is added for 30 minutes prior to pSTAT4 and total STAT4 analysis using cell lysates prepared and analyzed by MSD reagents as per manufacturer protocol. The final DMSO concentration of compound in the assay is 0.1%.
(§1) The compound numbers correspond to the compound numbers in Table 1. Compounds having an activity designated as “A” provided an EC50≤2 μM; compounds having an activity designated as “B” provided a EC50 of 2-20 μM, and compounds having an activity designated as “C” provided an EC50>20 μM.

[2] = tested on: GM-CSF induced pSTAT5 (JAK2-pSTAT5); experiment: GM-CSF Induced pSTAT5 in human PBMC; format: cell-based; settings: GM-CSF 5 ng/mL
Method: GM-CSF Induced pSTAT5 in human PBMC. Cells are prepared for analysis as in the above procedure and 15 μl of GM-CSF (final concentration 5 ng/mL) is added for 20 minutes prior to pSTAT5 and total STAT5 analysis using cell lysates prepared and analyzed by MSD reagents as per manufacturer protocol. The final DMSO concentration of compound in the assay is 0.1%.
as §1

TYK2 = TYK2 (Homo sapiens (Human), UniProt P29597); experiment: Tyk2 activity inhibition assay (radioactive kinase / Caliper assay); format: biochemical
JAK2 = JAK2 (Homo sapiens (Human), UniProt O60674); experiment: JAK2 activity inhibition assay (radioactive kinase / Caliper assay); format: biochemical
Chain of JAK2 (O60674 whole entry): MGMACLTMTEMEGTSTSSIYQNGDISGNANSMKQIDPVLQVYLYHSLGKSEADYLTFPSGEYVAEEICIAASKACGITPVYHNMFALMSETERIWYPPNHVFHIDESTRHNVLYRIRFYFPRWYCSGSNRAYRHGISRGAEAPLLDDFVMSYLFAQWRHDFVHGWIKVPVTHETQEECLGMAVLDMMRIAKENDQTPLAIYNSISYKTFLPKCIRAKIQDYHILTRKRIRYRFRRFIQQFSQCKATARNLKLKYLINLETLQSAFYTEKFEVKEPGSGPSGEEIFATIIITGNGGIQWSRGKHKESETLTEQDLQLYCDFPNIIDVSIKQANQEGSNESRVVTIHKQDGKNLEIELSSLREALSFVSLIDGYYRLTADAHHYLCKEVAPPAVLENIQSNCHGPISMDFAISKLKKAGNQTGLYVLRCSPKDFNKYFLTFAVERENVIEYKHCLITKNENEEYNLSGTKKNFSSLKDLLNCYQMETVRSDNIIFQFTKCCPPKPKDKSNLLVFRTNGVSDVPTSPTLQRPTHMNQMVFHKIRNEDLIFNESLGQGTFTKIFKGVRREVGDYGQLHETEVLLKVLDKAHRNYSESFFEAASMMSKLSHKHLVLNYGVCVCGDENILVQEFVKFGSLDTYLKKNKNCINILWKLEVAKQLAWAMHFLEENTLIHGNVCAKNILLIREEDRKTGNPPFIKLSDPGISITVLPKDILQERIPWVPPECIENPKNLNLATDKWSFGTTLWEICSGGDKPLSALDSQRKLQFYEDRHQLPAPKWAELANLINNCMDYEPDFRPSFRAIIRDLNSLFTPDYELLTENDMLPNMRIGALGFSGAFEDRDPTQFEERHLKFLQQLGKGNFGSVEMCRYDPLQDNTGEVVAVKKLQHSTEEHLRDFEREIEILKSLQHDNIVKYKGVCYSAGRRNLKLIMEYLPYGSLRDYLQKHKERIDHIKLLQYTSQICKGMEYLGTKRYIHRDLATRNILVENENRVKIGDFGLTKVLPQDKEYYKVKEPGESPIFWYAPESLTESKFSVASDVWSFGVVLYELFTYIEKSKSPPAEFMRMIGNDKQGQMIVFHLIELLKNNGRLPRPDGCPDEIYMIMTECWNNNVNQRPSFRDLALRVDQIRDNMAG

Chain of TYK2 (P29597 whole entry): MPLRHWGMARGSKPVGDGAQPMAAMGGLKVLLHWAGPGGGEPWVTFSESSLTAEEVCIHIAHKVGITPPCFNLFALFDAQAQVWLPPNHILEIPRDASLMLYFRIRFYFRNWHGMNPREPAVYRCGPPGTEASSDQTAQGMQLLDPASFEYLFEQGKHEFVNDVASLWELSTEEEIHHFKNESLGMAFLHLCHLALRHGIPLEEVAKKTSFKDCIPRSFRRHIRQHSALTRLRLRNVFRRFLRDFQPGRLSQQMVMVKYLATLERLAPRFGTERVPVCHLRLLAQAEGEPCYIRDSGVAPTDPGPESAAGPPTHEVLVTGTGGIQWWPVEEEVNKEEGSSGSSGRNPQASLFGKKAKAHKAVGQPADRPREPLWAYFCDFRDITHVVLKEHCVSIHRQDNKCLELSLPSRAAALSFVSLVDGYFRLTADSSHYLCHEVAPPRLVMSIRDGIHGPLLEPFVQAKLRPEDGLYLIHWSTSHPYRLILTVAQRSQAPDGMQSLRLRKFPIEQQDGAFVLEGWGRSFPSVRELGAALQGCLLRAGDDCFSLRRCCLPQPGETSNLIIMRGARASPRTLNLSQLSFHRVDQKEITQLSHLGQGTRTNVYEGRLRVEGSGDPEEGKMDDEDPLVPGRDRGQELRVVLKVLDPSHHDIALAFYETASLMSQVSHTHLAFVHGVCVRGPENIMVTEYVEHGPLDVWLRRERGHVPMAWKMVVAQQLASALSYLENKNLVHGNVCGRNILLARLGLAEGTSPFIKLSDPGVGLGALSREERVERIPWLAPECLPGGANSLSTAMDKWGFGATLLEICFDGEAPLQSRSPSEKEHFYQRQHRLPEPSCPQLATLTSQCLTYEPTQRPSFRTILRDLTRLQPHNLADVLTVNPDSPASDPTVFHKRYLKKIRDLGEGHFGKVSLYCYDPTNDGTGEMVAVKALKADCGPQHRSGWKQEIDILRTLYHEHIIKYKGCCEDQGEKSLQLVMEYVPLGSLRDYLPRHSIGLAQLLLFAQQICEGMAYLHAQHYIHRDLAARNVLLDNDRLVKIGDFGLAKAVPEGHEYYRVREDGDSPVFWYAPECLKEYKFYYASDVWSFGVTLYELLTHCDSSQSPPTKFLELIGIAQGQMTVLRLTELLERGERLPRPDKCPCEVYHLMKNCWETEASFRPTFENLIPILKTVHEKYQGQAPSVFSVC

O=C1NCc2c1c(Nc1ccc(C(=O)N3CCOCC3)cc1)cc(-c1c(F)cccc1F)[n+]2[O-] [Compound I-84, 2-(2,6-difluorophenyl)-4-((4-(morpholine-4-carbonyl)phenyl)-amino)-5-oxo-6,7-dihydro-5H-pyrrolo[3,4-b]pyridine 1-oxide]
EC50 [1]: > 20000 nM | EC50 [2]: > 20 µM | Ki (TYK2): 10 to 100 nM | Ki (JAK2): ≥ 1000 nM

O=C1NCc2nc(-c3c(F)cccc3F)cc(Nc3ccc(N4CCC5(CCOC5)CC4)cn3)c21 [Compound I-52, 4-((5-(2-oxa-8-azaspiro[4.5]decan-8-yl)pyridin-2-yl)amino)-2-(2,6-difluorophenyl)-6,7-dihydro-5H-pyrrolo[3,4-b]pyridin-5-one]
EC50 [1]: ≤ 2000 nM | EC50 [2]: ≤ 2 µM | Ki (TYK2): ≤ 10 nM | Ki (JAK2): ≤ 10 nM

CCNC(=O)[C@@](C)(O)c1ccc(Nc2nc(-c3c(F)cccc3F)nc3c2C(=O)NC3)cc1 [Compound I-15, (S)-2-(4-((2-(2,6-difluorophenyl)-5-oxo-6,7-dihydro-5H-pyrrolo[3,4-d]pyrimidin-4-yl)amino)phenyl)-N-ethyl-2-hydroxypropanamide]
EC50 [1]: ≤ 2000 nM | EC50 [2]: 2 to 20 µM | Ki (TYK2): ≤ 10 nM | Ki (JAK2): 10 to 100 nM

N#Cc1cccc(F)c1-c1cc(Nc2ccc(N3CCOC4(CC4)C3)nc2)c2c(n1)CNC2=O [Compound I-79, 2-(4-((6-(4-oxa-7-azaspiro[2.5]octan-7-yl)pyridin-3-yl)amino)-5-oxo-6,7-dihydro-5H-pyrrolo[3,4-b]pyridin-2-yl)-3-fluorobenzonitrile]
EC50 [1]: ≤ 2000 nM | EC50 [2]: 2 to 20 µM | Ki (TYK2): ≤ 10 nM | Ki (JAK2): 10 to 100 nM

O=C1NCc2nc(-c3c(F)cccc3F)nc(Nc3ccc4c(c3)NCC4)c21 [Compound I-1, 2-(2,6-difluorophenyl)-4-(indolin-6-ylamino)-6,7-dihydro-5H-pyrrolo[3,4-d]pyrimidin-5-one]
EC50 [1]: ≤ 2000 nM | EC50 [2]: 2 to 20 µM | Ki (TYK2): ≤ 10 nM | Ki (JAK2): 100 to 1000 nM

O=C1NCc2nc(-c3c(F)cccc3F)cc(Nc3ccc(C(=O)N4CCC5(CCOCC5)CC4)cc3)c21 [Compound I-58, 4-((4-(3-oxa-9-azaspiro[5.5]undecane-9-carbonyl)phenyl)amino)-2-(2,6-difluorophenyl)-6,7-dihydro-5H-pyrrolo[3,4-b]pyridin-5-one]
EC50 [1]: ≤ 2000 nM | EC50 [2]: 2 to 20 µM | Ki (TYK2): ≤ 10 nM | Ki (JAK2): ≤ 10 nM

O=C1NCc2nc(-c3c(F)cccc3F)cc(Nc3ccc(N4CCCC5(CCO5)C4)cn3)c21 (stereo not shown) [Compound I-36, 4-((5-(1-oxa-6-azaspiro[3.5]nonan-6-yl)pyridin-2-yl)amino)-2-(2,6-difluorophenyl)-6,7-dihydro-5H-pyrrolo[3,4-b]pyridin-5-one]
EC50 [1]: ≤ 2000 nM | EC50 [2]: 2 to 20 µM | Ki (TYK2): ≤ 10 nM | Ki (JAK2): 10 to 100 nM
